{
  "source": "patent US20260159474A1",
  "about": "“Aminoindane Compounds and Compositions and Methods of Their Therapeutic Use” (Solvonis Therapeutics Ireland Holdings Limited, priority 2021, published 2026)",
  "experiment_in_all_cases": "CYP450 inhibition, fluorescent probe substrate",
  "format_in_all_cases": "in vitro ADME",
  "key": {"CYP1A2": {"target": "T1, CYP1A2 (Homo sapiens, UniProt P05177)", "T1 construct": "host or cells: recombinant microsomes", "T1 sequence (P05177 1-516)": "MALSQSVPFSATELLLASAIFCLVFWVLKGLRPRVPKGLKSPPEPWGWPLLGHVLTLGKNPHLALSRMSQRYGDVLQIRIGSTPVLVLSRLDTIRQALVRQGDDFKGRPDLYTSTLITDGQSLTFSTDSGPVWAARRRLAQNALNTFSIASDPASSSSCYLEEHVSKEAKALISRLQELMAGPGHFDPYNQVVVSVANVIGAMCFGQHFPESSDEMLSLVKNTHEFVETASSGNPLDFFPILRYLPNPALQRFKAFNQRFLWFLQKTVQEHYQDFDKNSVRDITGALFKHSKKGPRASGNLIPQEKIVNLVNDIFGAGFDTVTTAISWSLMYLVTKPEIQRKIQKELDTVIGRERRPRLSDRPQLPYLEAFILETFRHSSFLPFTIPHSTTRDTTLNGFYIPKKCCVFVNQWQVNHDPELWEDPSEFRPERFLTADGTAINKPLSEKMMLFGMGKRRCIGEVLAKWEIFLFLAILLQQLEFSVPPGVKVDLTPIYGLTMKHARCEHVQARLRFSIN", "protocol": "(§1) Methods: Recombinant human CYP450 isoenzymes were used to metabolize pro-fluorescent probe substrates to fluorescent products. IC50 values determined from the effect of test compounds on the metabolism of these probe substrates were then used to determine inhibitory potency against CYP450 isoforms. The chemical reagents included:\n(§2) The test system was based on a three-step procedure with a “mix and read” format, where reaction and reading were performed at 37° C. The assays described herein measure in vitro inhibitory effects (pIC50) of compounds on the human P450 isoforms (1A2, 2B6, 2C8, 2C9, 2C19, 2D6, 3A4) expressed in recombinant microsomes. Pro-fluorescent probe substrates were metabolized to fluorescent products by the enzymes. Fluorescence was measured in kinetic mode (1 read/minutes for 10 minutes), and the fluorescence rate was calculated.\n(§3) Inhibition of the fluorescent signal resulting from P450 activation indicated inhibitory activity and facilitated calculation of the compound pIC50. A quality check was included in each compound plate, wherein the signal window was monitored by performing Z′ calculations ([…] ) and the antagonist potency of internal standards was within the pIC50±2SD range. Concentration response curves (CRCs) of compounds were run on two different test occasions (n 2) by preparing serial dilutions from the same compound stock solution.\n(§4) To prepare the compound plate, test compounds serial dilutions 1 to 3 were performed from a 10 mM stock solution in DMSO by Biomek FX to generate 10 point CRC with the highest concentrations in columns 3 and 13.\n(§5) 100% DMSO was placed in columns 1 and 2 and used for assay low controls. CYP inhibitor (10 mM miconazole solution in DMSO) was placed in columns 23 and 24 and served as an assay high controls. 1 μL copy plates were then stamped into V-bottom drug plates at a concentration that is 200 fold the final assay concentration. The copy plates were diluted prior to the experiment with assay buffer to reach 4 times the final assay concentration (2% w/v DMSO).\n(§6) A reference compound (e.g., miconazole) was included in each compound plate in row A, column 3 and 13. The reference compound was diluted and stamped together with test compounds. The final concentrations of the 10 point CRCs of test compounds in the assay plate were 5.00E-05; 1.67E-05; 5.56E-06; 1.85E-06; 6.17E-07; 2.06E-07; 6.86E-08; 2.29E-08; 7.62E-09 and 2.54E-09, respectively. All solutions were prepared immediately before the assay.\n(§7) Microsomes were added to the buffer prior to the substrate addition. The solution was carefully mixed without vortexing. 30 μL/well of the mixture was then transferred to the assay plate (384-well black plate) using a 16-channel pipette. For each P450 isoformn, a separate plate was prepared and labeled with a barcode. For fluorescence measurement, 10 μL/well of the test compounds were transferred from the compound plate to the assay plate using Biomek FX and the appropriate protocol. The assay plate was then incubated at 37° C. for 10 minutes on a shaker to allow for the interaction between compounds and enzymes.\n(§8) 10 μL/well of the cofactor was then added to the assay plate using the Multidrop before placing the assay plate in the plate reader EnVision to measure fluorescence. The overall final DMSO concentration for the assay was 0.5%. Plates were read every minute for 10 minutes, according to a P450 isoform specific protocol, as shown below.\n(§9) Regarding data analysis, inhibition is expressed as a percentage. […] Curve fitting and pIC50 estimations are carried out using a four-parameter logistic model in Morphit."}, "CYP2C19": {"target": "T2, CYP2C19 (Homo sapiens, UniProt P33261)", "T2 construct": "host or cells: recombinant microsomes", "T2 sequence (P33261 whole entry)": "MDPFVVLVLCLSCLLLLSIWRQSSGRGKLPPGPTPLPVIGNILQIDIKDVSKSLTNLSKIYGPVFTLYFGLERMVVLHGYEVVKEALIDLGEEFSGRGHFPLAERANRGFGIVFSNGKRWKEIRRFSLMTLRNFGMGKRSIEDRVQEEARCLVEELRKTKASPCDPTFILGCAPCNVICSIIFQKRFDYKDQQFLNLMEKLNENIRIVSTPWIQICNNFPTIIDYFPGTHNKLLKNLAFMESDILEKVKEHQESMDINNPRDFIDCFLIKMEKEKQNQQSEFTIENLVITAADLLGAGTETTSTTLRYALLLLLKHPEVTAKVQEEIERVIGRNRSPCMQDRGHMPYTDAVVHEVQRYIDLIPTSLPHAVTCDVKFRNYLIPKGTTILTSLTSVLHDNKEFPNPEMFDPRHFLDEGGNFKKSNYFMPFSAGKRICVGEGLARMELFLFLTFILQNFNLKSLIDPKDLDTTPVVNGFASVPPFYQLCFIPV", "protocol": "as §1, §2, §3, §4, §5, §6, §7, §8, §9"}, "CYP2C9": {"target": "T3, CYP2C9 (Homo sapiens, UniProt P11712)", "T3 construct": "host or cells: recombinant microsomes", "T3 sequence (P11712 whole entry)": "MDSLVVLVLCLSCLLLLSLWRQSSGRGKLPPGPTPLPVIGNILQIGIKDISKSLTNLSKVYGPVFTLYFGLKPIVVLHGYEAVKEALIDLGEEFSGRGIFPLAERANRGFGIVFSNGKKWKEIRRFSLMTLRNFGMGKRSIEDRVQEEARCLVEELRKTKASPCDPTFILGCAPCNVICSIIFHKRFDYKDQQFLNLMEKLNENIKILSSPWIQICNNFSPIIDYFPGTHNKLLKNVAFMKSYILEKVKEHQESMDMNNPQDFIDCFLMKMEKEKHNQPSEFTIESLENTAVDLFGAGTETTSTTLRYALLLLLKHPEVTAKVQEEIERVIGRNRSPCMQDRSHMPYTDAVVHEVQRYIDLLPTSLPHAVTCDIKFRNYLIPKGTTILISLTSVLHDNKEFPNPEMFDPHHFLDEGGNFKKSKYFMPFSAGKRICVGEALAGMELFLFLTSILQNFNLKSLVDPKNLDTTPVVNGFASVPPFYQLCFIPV", "protocol": "as §1, §2, §3, §4, §5, §6, §7, §8, §9"}, "CYP2D6": {"target": "T4, CYP2D6 (Homo sapiens, UniProt P10635)", "T4 construct": "host or cells: recombinant microsomes", "T4 sequence (P10635 whole entry)": "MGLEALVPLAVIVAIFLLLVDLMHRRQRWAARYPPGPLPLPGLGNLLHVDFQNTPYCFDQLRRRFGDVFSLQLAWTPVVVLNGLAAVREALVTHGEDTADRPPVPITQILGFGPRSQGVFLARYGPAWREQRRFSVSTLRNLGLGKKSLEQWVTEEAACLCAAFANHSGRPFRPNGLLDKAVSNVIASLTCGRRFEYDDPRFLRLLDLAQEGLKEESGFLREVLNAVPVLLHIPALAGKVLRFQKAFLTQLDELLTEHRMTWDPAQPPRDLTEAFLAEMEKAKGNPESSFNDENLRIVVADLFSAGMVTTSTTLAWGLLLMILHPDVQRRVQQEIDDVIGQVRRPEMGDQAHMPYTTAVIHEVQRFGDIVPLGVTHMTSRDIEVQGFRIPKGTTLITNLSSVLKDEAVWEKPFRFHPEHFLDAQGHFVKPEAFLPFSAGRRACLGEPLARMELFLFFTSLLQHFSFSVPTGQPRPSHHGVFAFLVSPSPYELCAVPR", "protocol": "as §1, §2, §3, §4, §5, §6, §7, §8, §9"}, "[1]": {"conditions": "recombinant human isoenzyme, n=2"}, "[2]": {"conditions": "recombinant human isoenzyme, n=2, read-out: Inhibition of CYP1A2, IC50"}, "[3]": {"conditions": "recombinant human isoenzyme, n=2, read-out: Inhibition of CYP2C19, IC50"}, "[4]": {"conditions": "recombinant human isoenzyme, n=2, read-out: Inhibition of CYP2C9, IC50"}, "[5]": {"conditions": "recombinant human isoenzyme, n=2, read-out: Inhibition of CYP2D6, IC50"}},
  "note": "Like-named read-outs stand apart in the source and are kept apart here.",
  "data": [
    {"compound": "COC(=O)c1cc2c(cc1OC)CC(N)C2", "note": "(centres unmarked) [CMP-401]", "values": [
      {"measurement": "Inhibition of CYP1A2, IC50", "setting": "CYP1A2; [1]", "value": "displayed inhibitory activity at CYP1A2"},
      {"measurement": "IC50", "setting": "CYP1A2; [2]", "value": 1210, "unit": "nM"},
      {"measurement": "IC50", "setting": "CYP2C19; [3]", "value": "> 50", "unit": "µM"},
      {"measurement": "IC50", "setting": "CYP2C9; [4]", "value": "> 50", "unit": "µM"},
      {"measurement": "IC50", "setting": "CYP2D6; [5]", "value": "> 50", "unit": "µM"}
    ]},
    {"compound": "COC(=O)COc1ccc2c(c1)CC(N)C2", "note": "(centres unmarked) [CMP-402]", "values": [
      {"measurement": "Inhibition of CYP1A2, IC50", "setting": "CYP1A2; [1]", "value": "displayed inhibitory activity at CYP1A2"},
      {"measurement": "IC50", "setting": "CYP1A2; [2]", "value": 1070, "unit": "nM"},
      {"measurement": "IC50", "setting": "CYP2C19; [3]", "value": "> 50", "unit": "µM"},
      {"measurement": "IC50", "setting": "CYP2C9; [4]", "value": "> 50", "unit": "µM"},
      {"measurement": "IC50", "setting": "CYP2D6; [5]", "value": "> 50", "unit": "µM"}
    ]},
    {"compound": "COC(=O)c1ccc2c(c1)CC(N)C2", "note": "(centres unmarked) [CMP-405, 2-aminoindane-5-methylcarboxylate]", "values": [
      {"measurement": "Inhibition of CYP1A2, IC50", "setting": "CYP1A2; [1]", "value": "displayed inhibitory activity at CYP1A2"},
      {"measurement": "IC50", "setting": "CYP1A2; [2]", "value": 610, "unit": "nM"},
      {"measurement": "IC50", "setting": "CYP2C19; [3]", "value": "> 50", "unit": "µM"},
      {"measurement": "IC50", "setting": "CYP2C9; [4]", "value": "> 50", "unit": "µM"},
      {"measurement": "IC50", "setting": "CYP2D6; [5]", "value": 23, "unit": "µM"}
    ]},
    {"compound": "CNC(C)Cc1ccc2c(c1)OCO2", "note": "(centres unmarked) [MDMA]", "values": [
      {"measurement": "IC50", "setting": "CYP1A2; [2]", "value": "> 50000", "unit": "nM"},
      {"measurement": "IC50", "setting": "CYP2C19; [3]", "value": "> 50", "unit": "µM"},
      {"measurement": "IC50", "setting": "CYP2C9; [4]", "value": "> 50", "unit": "µM"},
      {"measurement": "IC50", "setting": "CYP2D6; [5]", "value": 1.6, "unit": "µM"}
    ]},
    {"compound": "COc1ccc2c(c1)CC(N)C2", "note": "(centres unmarked) [MEAI, 5-methoxy-2-aminoindane]", "values": [
      {"measurement": "IC50", "setting": "CYP1A2", "value": "> 50000", "unit": "nM"},
      {"measurement": "IC50", "setting": "CYP2C19", "value": "> 50", "unit": "µM"},
      {"measurement": "IC50", "setting": "CYP2C9", "value": "> 50", "unit": "µM"},
      {"measurement": "IC50", "setting": "CYP2D6", "value": 37, "unit": "µM"}
    ]},
    {"compound": "COc1cc2c(cc1C)CC(N)C2", "note": "(centres unmarked) [MMAI, 5-methoxy-6-methyl-2-aminoindane]", "values": [
      {"measurement": "IC50", "setting": "CYP1A2", "value": 2110, "unit": "nM"},
      {"measurement": "Inhibition of CYP1A2, IC50", "setting": "CYP1A2; [1]", "value": "displayed inhibitory activity at CYP1A2"},
      {"measurement": "IC50", "setting": "CYP2C19", "value": "> 50", "unit": "µM"},
      {"measurement": "IC50", "setting": "CYP2C9", "value": 35.7, "unit": "µM"},
      {"measurement": "Inhibition of CYP2C9, IC50", "setting": "CYP2C9; [1]", "value": "found to inhibit CYP2C9"},
      {"measurement": "IC50", "setting": "CYP2D6", "value": 33.6, "unit": "µM"}
    ]}
  ]
}
